Reference: ChEMBL document CHEMBL1201862, “PubChem BioAssay data set” (2004)
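In this assay, cells in 96-well plates receive the compound at five concentrations for 48 hours. Endpoints are linearly interpolated between the surrounding concentrations. GI50 is the concentration that inhibits growth by half.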 Calls of active or inactive are those of the source. No stated cut-off is given here; in the data, active = GI50 up to about 1.1 µM and inactive = higher.

Assays:
Assay in all cases: DTP human tumour cell line panel, 48 h
MDA-N = test system: MDA-N
HOP-62 = test system: HOP-62
HOP-92 = test system: HOP-92
PC-3 = test system: PC-3
NCI/ADR-RES = test system: NCI/ADR-RES
SW-620 = test system: SW-620
OVCAR-3 = test system: OVCAR-3
KM12 = test system: KM12
NCI-H522 = test system: NCI-H522
NCI-H23 = test system: NCI-H23
HL-60 = test system: HL-60
SF-539 = test system: SF-539
SK-MEL-28 = test system: SK-MEL-28
NCI-H460 = test system: NCI-H460
HT-29 = test system: HT-29
SR = test system: SR
CAKI-1 = test system: CAKI-1
HCT-15 = test system: HCT-15
NCI-H226 = test system: NCI-H226
HCT-116 = test system: HCT-116

| Compound | GI50 (MDA-N) | GI50 (HOP-62) | GI50 (HOP-92) | GI50 (PC-3) | GI50 (NCI/ADR-RES) | GI50 (SW-620) | GI50 (OVCAR-3) | GI50 (KM12) | GI50 (NCI-H522) | GI50 (NCI-H23) | GI50 (HL-60) | GI50 (SF-539) | GI50 (SK-MEL-28) | GI50 (NCI-H460) | GI50 (HT-29) | GI50 (SR) | GI50 (CAKI-1) | GI50 (HCT-15) [µM] | GI50 (NCI-H226) | GI50 (HCT-116) |
| --- | --- | --- | --- | --- | --- | --- | --- | --- | --- | --- | --- | --- | --- | --- | --- | --- | --- | --- | --- | --- |
| C=C1C(=O)OC2CC1C(OC(=O)/C=C/c1ccccc1)C/C(C)=C/CC/C(C)=C/CCC2(C)O (stereo not given) | 1.38 µM (inactive) | 1.8 µM (inactive) | 1.52 µM (inactive) | 1.63 µM (inactive) | 1.74 µM (inactive) | 1.04 µM (active) | 1.52 µM (inactive) | 1.71 µM (inactive) | 0.692 µM (active) | 2.29 µM (inactive) | 0.308 µM (active) | 1.46 µM (inactive) | 2.3 µM (inactive) | 1.36 µM (inactive) | 1.33 µM (inactive) | 0.778 µM (active) | 1.46 µM (inactive) | 0.889 | 1.64 µM (inactive) | 1.24 µM (inactive) |
| COc1ccc([C@H]2[C@H](C)C3=Nc4ccccc4CN32)cc1 | 20.7 µM (inactive) | > 100 µM (inactive) | 56.5 µM (inactive) | > 100 µM (inactive) | > 100 µM (inactive) | 39.9 µM (inactive) | > 100 µM (inactive) | 42.6 µM (inactive) | > 100 µM (inactive) | 69.8 µM (inactive) | 29.9 µM (inactive) | 39.3 µM (inactive) | 33.2 µM (inactive) | 31.6 µM (inactive) | 35.8 µM (inactive) | 36.8 µM (inactive) | > 100 µM (inactive) | 76.2 | 85.1 µM (inactive) | 33.8 µM (inactive) |
| O=C1C=C(Nc2ccc(Br)cc2)c2ccccc2/C1=N/O | 1.89 µM (inactive) | 2.78 µM (inactive) | 17.6 µM (inactive) | 8.47 µM (inactive) | 8.67 µM (inactive) | 4.32 µM (inactive) | 7.35 µM (inactive) | 2.5 µM (inactive) | 28.1 µM (inactive) | 1.28 µM (inactive) | 13.2 µM (inactive) | 9.48 µM (inactive) | 2 µM (inactive) | 2.3 µM (inactive) | 12.1 µM (inactive) | 9.38 µM (inactive) | 6.52 µM (inactive) | 3.14 | 2.32 µM (inactive) | 11.4 µM (inactive) |
| COc1ccc(OC)c([N+](=O)[O-])c1-c1nc2sccn2c1/C=N/N=C(N)N | 49.8 µM (inactive) | > 100 µM (inactive) | 23 µM (inactive) | 53 µM (inactive) | > 100 µM (inactive) | 93.3 µM (inactive) | 58.1 µM (inactive) | 27.6 µM (inactive) | 58.2 µM (inactive) | > 100 µM (inactive) | 79.6 µM (inactive) | > 100 µM (inactive) | 17.7 µM (inactive) | 76.6 µM (inactive) | 63.8 µM (inactive) | 30.6 µM (inactive) | > 100 µM (inactive) | > 100 | > 100 µM (inactive) | 48.4 µM (inactive) |
| COC(=O)C1C(=O)C(C(=O)OC)C2CCC1N2C (stereo not given) | 23.8 µM (inactive) | 36.2 µM (inactive) | 16 µM (inactive) | 29.4 µM (inactive) | 48.6 µM (inactive) | 36.5 µM (inactive) | 18.3 µM (inactive) | > 100 µM (inactive) | > 100 µM (inactive) | 0.571 µM (active) | 19.9 µM (inactive) | 33.5 µM (inactive) | 34.4 µM (inactive) | 48.3 µM (inactive) | 35 µM (inactive) | 32.1 µM (inactive) | 92.5 µM (inactive) | 1.84 | 36.2 µM (inactive) | 21.5 µM (inactive) |
| Cc1nc2ccc(S(=O)(=O)Nc3ccc(Cl)cc3)cc2c(=O)n1NC(=O)CNc1ccc(Cl)cc1 | > 100 µM (inactive) | > 100 µM (inactive) | > 100 µM (inactive) | > 100 µM (inactive) | > 100 µM (inactive) | > 100 µM (inactive) | > 100 µM (inactive) | 64 µM (inactive) | > 100 µM (inactive) | > 100 µM (inactive) | > 100 µM (inactive) | > 100 µM (inactive) | > 100 µM (inactive) | > 100 µM (inactive) | > 100 µM (inactive) | > 100 µM (inactive) | > 100 µM (inactive) | > 100 | > 100 µM (inactive) | > 100 µM (inactive) |
| O=C(OCCNC(=O)N1CC1)OCCNC(=O)N1CC1 | > 10 µM (inactive) | > 10 µM (inactive) | > 10 µM (inactive) | > 10 µM (inactive) | > 10 µM (inactive) | > 10 µM (inactive) | > 10 µM (inactive) | > 10 µM (inactive) | > 10 µM (inactive) | > 10 µM (inactive) | > 10 µM (inactive) | > 10 µM (inactive) | > 10 µM (inactive) | > 10 µM (inactive) | > 10 µM (inactive) | > 10 µM (inactive) | > 10 µM (inactive) | > 10 | > 10 µM (inactive) | > 10 µM (inactive) |
| C[N+](CCCl)(CCCl)Cc1cccc2cccc([N+](=O)[O-])c12 | > 100 µM (inactive) | 89.1 µM (inactive) | > 100 µM (inactive) | 85.3 µM (inactive) | > 100 µM (inactive) | > 100 µM (inactive) | 44.7 µM (inactive) | > 100 µM (inactive) | 73.1 µM (inactive) | 30 µM (inactive) | 45.1 µM (inactive) | 94.8 µM (inactive) | > 100 µM (inactive) | 53.8 µM (inactive) | 55.8 µM (inactive) | 5.83 µM (inactive) | 31 µM (inactive) | > 100 | > 100 µM (inactive) | > 100 µM (inactive) |
| NCCCN(CCCCN(CCCN)CCCc1ccccc1)CCCc1ccccc1 | 1.74 µM (inactive) | 9.89 µM (inactive) | 6.97 µM (inactive) | 3.22 µM (inactive) | 20.1 µM (inactive) | 2.86 µM (inactive) | 1.73 µM (inactive) | 2.55 µM (inactive) | 2.09 µM (inactive) | 4.32 µM (inactive) | 1.15 µM (inactive) | 1.86 µM (inactive) | 1.51 µM (inactive) | 1.42 µM (inactive) | 1.85 µM (inactive) | 2.31 µM (inactive) | 2.15 µM (inactive) | 1.96 | 17.6 µM (inactive) | 1.82 µM (inactive) |
| CN(C)c1ccc(/C=C2\N=C(NN)NC2=O)cc1 | 73.8 µM (inactive) | > 100 µM (inactive) | 59.8 µM (inactive) | 40.2 µM (inactive) | 82.2 µM (inactive) | 98.2 µM (inactive) | 86.3 µM (inactive) | 41.1 µM (inactive) | 46.1 µM (inactive) | > 100 µM (inactive) | 26.7 µM (inactive) | 35.2 µM (inactive) | > 100 µM (inactive) | 69.8 µM (inactive) | 31.3 µM (inactive) | 23.4 µM (inactive) | > 100 µM (inactive) | 50.8 | 78.2 µM (inactive) | 49.8 µM (inactive) |
| Cc1cc(C)c(-n2c(-c3ccc(Br)cc3)cs/c2=N\N=C2C=C(C(C)(C)C)C(=O)C(C(C)(C)C)=C2)c(C)c1 | > 100 µM (inactive) | 32.7 µM (inactive) | > 50.1 µM (inactive) | > 100 µM (inactive) | > 100 µM (inactive) | > 100 µM (inactive) | > 100 µM (inactive) | > 100 µM (inactive) | > 100 µM (inactive) | > 100 µM (inactive) | > 100 µM (inactive) | > 69.3 µM (inactive) | > 100 µM (inactive) | > 100 µM (inactive) | > 100 µM (inactive) | > 100 µM (inactive) | > 100 µM (inactive) | > 100 | > 100 µM (inactive) | > 76 µM (inactive) |
| COC(=O)C[C@@H]1C(C)(C)[C@@H]2O[C@@]34C[C@@H]2C(=O)[C@]1(C)[C@H]3CC[C@@]1(C)[C@H](c2ccoc2)OC(=O)C[C@]14O | > 100 µM (inactive) | > 100 µM (inactive) | > 100 µM (inactive) | > 100 µM (inactive) | > 100 µM (inactive) | > 100 µM (inactive) | > 100 µM (inactive) | > 100 µM (inactive) | > 100 µM (inactive) | > 100 µM (inactive) | > 100 µM (inactive) | > 100 µM (inactive) | > 100 µM (inactive) | > 100 µM (inactive) | > 100 µM (inactive) | > 100 µM (inactive) | > 100 µM (inactive) | > 100 | > 100 µM (inactive) | > 100 µM (inactive) |
| OC(C/C(=N\N=C(/CC(O)(C(F)(F)F)C(F)(F)F)c1ccccc1)c1ccccc1)(C(F)(F)F)C(F)(F)F | > 10 µM (inactive) | > 10 µM (inactive) | > 10 µM (inactive) | > 10 µM (inactive) | > 10 µM (inactive) | > 10 µM (inactive) | > 10 µM (inactive) | > 10 µM (inactive) | > 10 µM (inactive) | > 10 µM (inactive) | > 10 µM (inactive) | > 10 µM (inactive) | > 10 µM (inactive) | > 10 µM (inactive) | > 10 µM (inactive) | > 10 µM (inactive) | > 10 µM (inactive) | > 10 | > 10 µM (inactive) | > 10 µM (inactive) |
